Consider 13 compounds from ChEMBL document CHEMBL1133622, “Probes for narcotic receptor-mediated phenomena. 27. Synthesis and pharmacological evaluation of selective delta-opioid receptor agonists from 4-[(alphaR)-alpha-(2S,5R)-4-substituted-2, 5-dimethyl-1-piperazinyl-3-methoxybenzyl]-N,N-diethylbenzamides and their enantiomers” (J Med Chem, 2000).

Assay [1] deals with Delta-type opioid receptor (Rattus norvegicus, UniProt P33533). The assay can be described thus: Inhibition of [3H]-DADLE binding to rat brain membrane Opioid receptor delta 1.
Delta-type opioid receptor, sequence (P33533 whole entry): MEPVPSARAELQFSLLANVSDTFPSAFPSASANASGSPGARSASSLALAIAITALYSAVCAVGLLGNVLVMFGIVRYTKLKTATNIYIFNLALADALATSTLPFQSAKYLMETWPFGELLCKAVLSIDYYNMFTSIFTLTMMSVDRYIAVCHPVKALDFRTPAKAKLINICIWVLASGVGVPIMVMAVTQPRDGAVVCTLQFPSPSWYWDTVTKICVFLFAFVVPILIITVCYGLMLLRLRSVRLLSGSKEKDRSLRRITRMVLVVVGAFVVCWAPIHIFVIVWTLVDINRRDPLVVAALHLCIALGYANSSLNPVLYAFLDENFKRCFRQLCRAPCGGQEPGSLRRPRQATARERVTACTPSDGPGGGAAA
For assay [2], the target named is Delta-type opioid receptor (Rattus norvegicus) (UniProt P33533). Briefly: Percent stimulation of [35S]GTP-gamma-S, binding at 10 uM. The class given is functional.
Delta-type opioid receptor (Rattus norvegicus), sequence (P33533 whole entry): as above
For assay [3] the target is unchanged. Briefly: Percent inhibition of SNC80 stimulated [35S]GTP-gamma-S, binding at 10 uM. The format is functional. (In general: GTPγS resists hydrolysis and so accumulates on activated G proteins.)
For assay [4], the species on record is Rattus norvegicus. Briefly: (§1) Percent inhibition of SNC80 stimulated [35S]GTP-gamma-S, binding by the compound (10 uM). The format is functional.
The species named for assay [5] is Rattus norvegicus. Briefly: Percent stimulation of [35S]GTP-gamma-S, binding by the compound (10 uM). The class given is functional.
The target in assay [6] is Delta-type opioid receptor (Rattus norvegicus) (UniProt P33533). The assay is described as §1. The format is functional.

With `CCN(CC)C(=O)c1ccc([C@H](c2cccc(OC)c2)N2C[C@@H](C)NC[C@@H]2C)cc1`, the Ki – broadly, the equilibrium dissociation constant of an inhibitor or competing ligand from its target – in assay [1] is 4.7 nM. In assay [2], this compound gave a Stimulation of 63%. Also, the inhibition (usually the percentage by which the read-out fell short of the control) in assay [3] came to 11%.

Regarding `C=CCN1C[C@H](C)N([C@H](c2ccc(C(=O)N(CC)CC)cc2)c2cccc(OC)c2)C[C@H]1C` [SNC-80], in the assay filed under Rattus norvegicus [4], the Inhibition – broadly, the relative decrease from the control value, in per cent – is on record as 0%. The same compound gave a Stimulation in the assay listed under Rattus norvegicus [5] of 128%.

`CCCCCN1C[C@H](C)N([C@H](c2ccc(C(=O)N(CC)CC)cc2)c2cccc(OC)c2)C[C@H]1C`: the Ki in assay [1] came out at 4.7 nM. In addition, the inhibition in assay [6] turned out to be 28%. In addition, the Stimulation in assay [2] was found to be 26%.

Take `CCN(CC)C(=O)c1ccc([C@H](c2cccc(OC)c2)N2C[C@@H](C)N(C)C[C@@H]2C)cc1`: affinity in assay [1] was put at a Ki of 4.5 nM. For the same compound, the Stimulation in assay [2] stood at 25%. In assay [3], this compound showed an inhibition of 18%.

In assay [1], `C=C(C)CN1C[C@H](C)N([C@H](c2ccc(C(=O)N(CC)CC)cc2)c2cccc(OC)c2)C[C@H]1C` yielded an inhibition constant Ki of 4.8 nM. The Stimulation in assay [2] worked out at 119%. The compound further gave an inhibition in assay [3] of 2.3%.

With `CCN(CC)C(=O)c1ccc([C@H](c2cccc(OC)c2)N2C[C@@H](C)N(Cc3ccccc3)C[C@@H]2C)cc1`, the inhibition constant (Ki) in assay [1] is 6.2 nM. Also, in assay [2], the Stimulation was determined as 144%. The same compound returned an inhibition in assay [3] of 0%.

In assay [1], `CCN(CC)C(=O)c1ccc([C@H](c2cccc(OC)c2)N2C[C@@H](C)N(CCCc3ccccc3)C[C@@H]2C)cc1` displayed a Ki of 16.7 nM. Moreover, the Stimulation in assay [2] was found to be 18%. Also, the inhibition in assay [3] amounted to 13%.

For `CCN(CC)C(=O)c1ccc([C@H](c2cccc(OC)c2)N2C[C@@H](C)N(CC)C[C@@H]2C)cc1`, the inhibitory constant (Ki) in assay [1] is 5.2 nM. In assay [6], this compound returned an inhibition of 13%. The Stimulation in assay [2] is 45%.

Turning to `CCCCCCN1C[C@H](C)N([C@H](c2ccc(C(=O)N(CC)CC)cc2)c2cccc(OC)c2)C[C@H]1C`, the inhibition constant Ki in assay [1] stood at 10.4 nM. The Stimulation in assay [2] was determined as 21%. The compound further came in with an inhibition in assay [3] of 34%.

In turn, `CCCCN1C[C@H](C)N([C@H](c2ccc(C(=O)N(CC)CC)cc2)c2cccc(OC)c2)C[C@H]1C` registered a Ki in assay [1] of 2.7 nM. In assay [2], this compound showed a Stimulation of 66%. In the assay listed under Rattus norvegicus [4], this compound came in with an Inhibition of 19%.

For `CCN(CC)C(=O)c1ccc([C@H](c2cccc(OC)c2)N2C[C@@H](C)N(CCc3ccccc3)C[C@@H]2C)cc1`, the Ki in assay [1] is 30.6 nM. The same compound displayed a Stimulation in assay [2] of 10%. The compound also gave an inhibition in assay [3] of 30%.

In assay [1], `CCN(CC)C(=O)c1ccc([C@H](c2cccc(OC)c2)N2C[C@@H](C)N(CC3CC3)C[C@@H]2C)cc1` yielded a Ki of 3.5 nM. The compound also returned an inhibition in assay [6] of 18%. The same compound returned a Stimulation in assay [2] of 48%.

`C/C=C/CN1C[C@H](C)N([C@H](c2ccc(C(=O)N(CC)CC)cc2)c2cccc(OC)c2)C[C@H]1C` returned a Ki in assay [1] of 1.9 nM. The compound further came in with a Stimulation in assay [2] of 130%. In assay [3], this compound returned an inhibition of 6.3%.
